Values quoted from earlier work in PubChem BioAssay AID1259409 (Chemical Carcinogenesis Research Information System (CCRIS), 2018).

Test system: rodent chemically induced tumor inhibition, incidence and multiplicity
Experiment: CCRIS tumor inhibitor studies
Conditions: Carcinogen: AZOXYMETHANE, 25843-45-2, Dose [Inhibitor]: 0, Route [Inhibitor]: ORAL, Species: RAT, Strain/Sex: F344/MALE, Dose [Carcinogen]: 15 MG/KG BW 1/WK FOR 3 WK, Promoter: NONE USED

O=C(O)c1ccc(O)c(O)c1
tumour outcome (control, treated, inhibition, significance) (500 PPM IN DIET FOR 4 WK BEGINNING 1 WK PRIOR TO CARCINOGEN TREATMENT (STUDY DURATION: 32 WK), Target Tissue: Type of Lesion: COLON: ADENOCARCINOMA): 75%, 55%, 27%, not significant | tumour outcome (control, treated, inhibition, significance) (500 PPM IN DIET FOR 4 WK BEGINNING 1 WK PRIOR TO CARCINOGEN TREATMENT (STUDY DURATION: 32 WK), Target Tissue: Type of Lesion: COLON: ADENOMA): 10%, 5%, 50%, not significant | tumour outcome (control, treated, inhibition, significance) (500 PPM IN DIET FOR 4 WK BEGINNING 1 WK PRIOR TO CARCINOGEN TREATMENT (STUDY DURATION: 32 WK), Target Tissue: Type of Lesion: LARGE INTESTINE: ADENOCARCINOMA): 15/20 (75%), 11/20 (55%), 27%, not significant | tumour outcome (control, treated, inhibition, significance) (500 PPM IN DIET FOR 4 WK BEGINNING 1 WK PRIOR TO CARCINOGEN TREATMENT (STUDY DURATION: 32 WK), Target Tissue: Type of Lesion: LARGE INTESTINE: ADENOMA): 2/20 (10%), 1/20 (5%), 50%, not significant | tumour outcome (control, treated, inhibition, significance) (500 PPM IN DIET FOR 4 WK BEGINNING 1 WK PRIOR TO CARCINOGEN TREATMENT (STUDY DURATION: 32 WK), Target Tissue: Type of Lesion: SMALL INTESTINE: ADENOCARCINOMA): 6/20 (30%), 6/20 (30%), 0%, not significant | tumour outcome (control, treated, inhibition, significance) (500 PPM IN DIET FOR 4 WK BEGINNING 1 WK PRIOR TO CARCINOGEN TREATMENT (STUDY DURATION: 32 WK), Target Tissue: Type of Lesion: SMALL INTESTINE: ADENOMA): 1/20 (5%), 0/20 (0%), 100%, not significant | tumour outcome (control, treated, inhibition, significance) (500 PPM IN DIET FOR 28 WK BEGINNING 1 WK POST CARCINOGEN TREATMENT (STUDY DURATION: 32 WK), Target Tissue: Type of Lesion: COLON: ADENOCARCINOMA): 75%, 40%, 47%, not significant | tumour outcome (control, treated, inhibition, significance) (500 PPM IN DIET FOR 28 WK BEGINNING 1 WK POST CARCINOGEN TREATMENT (STUDY DURATION: 32 WK), Target Tissue: Type of Lesion: LARGE INTESTINE: ADENOCARCINOMA): 15/20 (75%), 8/20 (40%), 47%, not significant | tumour outcome (control, treated, inhibition, significance) (500 PPM IN DIET FOR 28 WK BEGINNING 1 WK POST CARCINOGEN TREATMENT (STUDY DURATION: 32 WK), Target Tissue: Type of Lesion: LARGE INTESTINE: ADENOMA): 2/20 (10%), 3/20 (15%), -50%, not significant | tumour outcome (control, treated, inhibition, significance) (500 PPM IN DIET FOR 28 WK BEGINNING 1 WK POST CARCINOGEN TREATMENT (STUDY DURATION: 32 WK), Target Tissue: Type of Lesion: SMALL INTESTINE: ADENOCARCINOMA): 6/20 (30%), 1/20 (5%), 83%, not significant | tumour outcome (control, treated, inhibition, significance) (500 PPM IN DIET FOR 28 WK BEGINNING 1 WK POST CARCINOGEN TREATMENT (STUDY DURATION: 32 WK), Target Tissue: Type of Lesion: SMALL INTESTINE: ADENOMA): 1/20 (5%), 0/20 (0%), 100%, not significant | tumour outcome (control, treated, inhibition, significance) (1000 PPM IN DIET FOR 4 WK BEGINNING 1 WK PRIOR TO CARCINOGEN TREATMENT (STUDY DURATION: 32 WK), Target Tissue: Type of Lesion: COLON: ADENOCARCINOMA): 75%, 30%, 60%, p<0.05 | tumour outcome (control, treated, inhibition, significance) (1000 PPM IN DIET FOR 4 WK BEGINNING 1 WK PRIOR TO CARCINOGEN TREATMENT (STUDY DURATION: 32 WK), Target Tissue: Type of Lesion: COLON: ADENOMA): 10%, 9%, 10%, not significant | tumour outcome (control, treated, inhibition, significance) (1000 PPM IN DIET FOR 4 WK BEGINNING 1 WK PRIOR TO CARCINOGEN TREATMENT (STUDY DURATION: 32 WK), Target Tissue: Type of Lesion: LARGE INTESTINE: ADENOCARCINOMA): 15/20 (75%), 7/23 (30%), 60%, p<0.006 | tumour outcome (control, treated, inhibition, significance) (1000 PPM IN DIET FOR 4 WK BEGINNING 1 WK PRIOR TO CARCINOGEN TREATMENT (STUDY DURATION: 32 WK), Target Tissue: Type of Lesion: LARGE INTESTINE: ADENOMA): 2/20 (10%), 2/23 (9%), 10%, not significant | tumour outcome (control, treated, inhibition, significance) (1000 PPM IN DIET FOR 4 WK BEGINNING 1 WK PRIOR TO CARCINOGEN TREATMENT (STUDY DURATION: 32 WK), Target Tissue: Type of Lesion: SMALL INTESTINE: ADENOCARCINOMA): 6/20 (30%), 8/23 (35%), -17%, not significant | tumour outcome (control, treated, inhibition, significance) (1000 PPM IN DIET FOR 4 WK BEGINNING 1 WK PRIOR TO CARCINOGEN TREATMENT (STUDY DURATION: 32 WK), Target Tissue: Type of Lesion: SMALL INTESTINE: ADENOMA): 1/20 (5%), 1/23 (4%), 20%, not significant | tumour outcome (control, treated, inhibition, significance) (1000 PPM IN DIET FOR 28 WK BEGINNING 1 WK POST CARCINOGEN TREATMENT (STUDY DURATION: 32 WK), Target Tissue: Type of Lesion: COLON: ADENOCARCINOMA): 75%, 22%, 71%, p<0.05 | tumour outcome (control, treated, inhibition, significance) (1000 PPM IN DIET FOR 28 WK BEGINNING 1 WK POST CARCINOGEN TREATMENT (STUDY DURATION: 32 WK), Target Tissue: Type of Lesion: COLON: ADENOMA): 10%, 9%, 10%, not significant | tumour outcome (control, treated, inhibition, significance) (1000 PPM IN DIET FOR 28 WK BEGINNING 1 WK POST CARCINOGEN TREATMENT (STUDY DURATION: 32 WK), Target Tissue: Type of Lesion: LARGE INTESTINE: ADENOCARCINOMA): 15/20 (75%), 5/23 (22%), 71%, p<0.008
